The supplement of paper PMC11208160

Assay: recombinant UMI read abundance after kanamycin selection (control-corrected) (log10(CPM+1)); higher = more efficient recombination; extreme values may be limits of the assay; sequences stand for … in AGTGCAGAGAAAATCGGCCAGTTTTCTCTGCCTGCAGTCCGCATGCCGTGGGACCCCTTGGGTTCTAACCTGTTGCCTAGATTTATGCAGCGGACTGCCTTTCTCCCAAAGTGATAAACCGG…AGGTTGGTTTCACT; site = the 11-nt donor
Summary of the method: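 Sequencing read counts were converted to CPM, averaged over two replicates and scaled by control-derived factors. Results are given as log10(CPM+1). The reads covered the donor–target junction of recombinant UMIs from a pooled Escherichia coli screen of donor and donor-binding-loop pairs for the IS621 bridge recombinase.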
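Further: IS621 bridge recombinase in Escherichia coli cells against a fixed T5 target plasmid.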

Row | Sequence | recombinant UMI read abundance (log10)
1 | CTAGTAGCATGGACCGGTTTTCCCGGTAATCCGTATTTGAC (site CTAGTAACTGT) | 2.01
2 | CTAGTAGCATGGACCGGTTTTCCCGGTAATCCGTATTTGAC (site CTAGTACCTGT) | 0
3 | CTAGTAGCATGGACCGGTTTTCCCGGTAATCCGTATTTGAC (site CTAGTAGCTGT) | 2.87
4 | CTAGTAGCATGGACCGGTTTTCCCGGTAATCCGTATTTGAC (site CTAGTATCTGT) | 2.74
5 | CTAGTATCATGGACCGGTTTTCCCGGTAATCCGTATTTGGC (site CTAGTATCTGA) | 2.25
6 | CTAGTATCATGGACCGGTTTTCCCGGTAATCCGTATTTGGC (site CTAGTATCTGC) | 3.32
7 | CTAGTATCATGGACCGGTTTTCCCGGTAATCCGTATTTGGC (site CTAGTATCTGG) | 2.2
8 | CTAGTATCATGGACCGGTTTTCCCGGTAATCCGTATTTGGC (site CTAGTATCTGT) | 2.76
9 | CTAGTATCATGGACCGGTTTTCCCGGTAATCCGTATTTGGT (site CTAGTATCTAC) | 1.85
10 | CTAGTATCATGGACCGGTTTTCCCGGTAATCCGTATTTGGT (site CTAGTATCTGT) | 2.06
11 | CTAGTATCATGGACCGGTTTTCCCGGTAATCCGTATTTGTC (site CTAGTATCTGA) | 3.35
12 | CTAGTATCATGGACCGGTTTTCCCGGTAATCCGTATTTGTC (site CTAGTATCTGC) | 3.17
13 | CTAGTATCATGGACCGGTTTTCCCGGTAATCCGTATTTGTC (site CTAGTATCTGG) | 3.08
14 | CTAGTATCATGGACCGGTTTTCCCGGTAATCCGTATTTGTC (site CTAGTATCTGT) | 2.65
15 | CTAGTCTCATGGACCGGTTTTCCCGGTAATCCGTATTTGAG (site CTAGTATCTGT) | 0
16 | CTAGTCTCATGGACCGGTTTTCCCGGTAATCCGTATTTGAG (site CTAGTCTCTCT) | 0.61
17 | CTAGTCTCATGGACCGGTTTTCCCGGTAATCCGTATTTGTC (site CTAGTATCTGT) | 0.445
18 | CTAGTCTCATGGACCGGTTTTCCCGGTAATCCGTATTTGTC (site CTAGTCTCTGA) | 3.48
19 | CTAGTTGCATGGACCGGTTTTCCCGGTAATCCGTATTTGAC (site CTAGTATCTGT) | 0.412
20 | CTAGTTGCATGGACCGGTTTTCCCGGTAATCCGTATTTGAC (site CTAGTTGCTGT) | 2.24
21 | CTATAGCCATGGACCGGTTTTCCCGGTAATCCGTATTTGCG (site CTATAGCCTCG) | 1.01
22 | CTATATCCATGGACCGGTTTTCCCGGTAATCCGTATTTGTA (site CTATATCCTTA) | 1.51
23 | CTATCATCATGGACCGGTTTTCCCGGTAATCCGTATTTGAT (site CTATCATCTAT) | 0.00941
24 | CTATGATCATGGACCGGTTTTCCCGGTAATCCGTATTTGCA (site CTATGATCTTG) | 2.62
25 | CTATGCTCATGGACCGGTTTTCCCGGTAATCCGTATTTGAA (site CAATGCTCTTT) | 0.941

Row | Sequence | recombinant UMI read abundance (log10)
26 | CTATGCTCATGGACCGGTTTTCCCGGTAATCCGTATTTGAA (site CCATGCTCTTT) | 0.497
27 | CTATGCTCATGGACCGGTTTTCCCGGTAATCCGTATTTGAA (site CGATGCTCTTT) | 0.383
28 | CTATGCTCATGGACCGGTTTTCCCGGTAATCCGTATTTGAA (site CTATGCTCTTT) | 2.25
29 | CTATTACCATGGACCGGTTTTCCCGGTAATCCGTATTTGAG (site CTATTACCTCT) | 0.00551
30 | CTATTATCATGGACCGGTTTTCCCGGTAATCCGTATTTGAC (site CTAATATCTGT) | 0
31 | CTATTATCATGGACCGGTTTTCCCGGTAATCCGTATTTGAC (site CTACTATCTGT) | 1.96
32 | CTATTATCATGGACCGGTTTTCCCGGTAATCCGTATTTGAC (site CTAGTATCTGT) | 1.61
33 | CTATTATCATGGACCGGTTTTCCCGGTAATCCGTATTTGAC (site CTATTATCTGT) | 2.82
34 | CTATTATCATGGACCGGTTTTCCCGGTAATCCGTATTTGAT (site CTAGTATCTGT) | 0
35 | CTATTATCATGGACCGGTTTTCCCGGTAATCCGTATTTGAT (site CTATTATCTAT) | 1.18
36 | CTATTTCCATGGACCGGTTTTCCCGGTAATCCGTATTTGGA (site CTATTTCCTTC) | 0
37 | CTCAATTCATGGACCGGTTTTCCCGGTAATCCGTATTTGCT (site CTCAATTCTAG) | 1.7
38 | CTCACAACATGGACCGGTTTTCCCGGTAATCCGTATTTGTG (site CTCACAACTCA) | 0
39 | CTCACACCATGGACCGGTTTTCCCGGTAATCCGTATTTGTC (site CTCACACCTGA) | 0
40 | CTCACGCCATGGACCGGTTTTCCCGGTAATCCGTATTTGTG (site CTCACGCCTCA) | 0
41 | CTCACTACATGGACCGGTTTTCCCGGTAATCCGTATTTGAG (site CTCACTACTCT) | 0.232
42 | CTCACTACATGGACCGGTTTTCCCGGTAATCCGTATTTGAG (site CTCCCTACTCT) | 0
43 | CTCACTACATGGACCGGTTTTCCCGGTAATCCGTATTTGAG (site CTCGCTACTCT) | 0
44 | CTCACTACATGGACCGGTTTTCCCGGTAATCCGTATTTGAG (site CTCTCTACTCT) | 0
45 | CTCACTCCATGGACCGGTTTTCCCGGTAATCCGTATTTGTA (site CTCACTCCTTA) | 0.981
46 | CTCATACCATGGACCGGTTTTCCCGGTAATCCGTATTTGGT (site CTCATACCTAC) | 0
47 | CTCATATCATGGACCGGTTTTCCCGGTAATCCGTATTTGAC (site CTAGTATCTGT) | 0
48 | CTCATATCATGGACCGGTTTTCCCGGTAATCCGTATTTGAC (site CTCATATCTGT) | 1.29
49 | CTCATTTCATGGACCGGTTTTCCCGGTAATCCGTATTTGTG (site CTCATTTCTCA) | 0
50 | CTCCAAGCATGGACCGGTTTTCCCGGTAATCCGTATTTGAG (site ATCCAAGCTCT) | 0.0148

Row | Sequence | recombinant UMI read abundance (log10)
51 | CTCCAAGCATGGACCGGTTTTCCCGGTAATCCGTATTTGAG (site CTCCAAGCTCT) | 0.456
52 | CTCCAAGCATGGACCGGTTTTCCCGGTAATCCGTATTTGAG (site GTCCAAGCTCT) | 0.0157
53 | CTCCAAGCATGGACCGGTTTTCCCGGTAATCCGTATTTGAG (site TTCCAAGCTCT) | 0.018
54 | CTCCACACATGGACCGGTTTTCCCGGTAATCCGTATTTGAC (site CTCCACACTGT) | 2.47
55 | CTCCACACATGGACCGGTTTTCCCGGTAATCCGTATTTGTA (site CACCACACTTA) | 1.47
56 | CTCCACACATGGACCGGTTTTCCCGGTAATCCGTATTTGTA (site CCCCACACTTA) | 0.728
57 | CTCCACACATGGACCGGTTTTCCCGGTAATCCGTATTTGTA (site CGCCACACTTA) | 0.289
58 | CTCCACACATGGACCGGTTTTCCCGGTAATCCGTATTTGTA (site CTCCACACTTA) | 1.33
59 | CTCCATACATGGACCGGTTTTCCCGGTAATCCGTATTTGAG (site CTCCATACTCT) | 1.27
60 | CTCCATACATGGACCGGTTTTCCCGGTAATCCGTATTTGAG (site CTCCCTACTCT) | 0.0258
61 | CTCCATACATGGACCGGTTTTCCCGGTAATCCGTATTTGAG (site CTCCGTACTCT) | 0.0224
62 | CTCCATACATGGACCGGTTTTCCCGGTAATCCGTATTTGAG (site CTCCTTACTCT) | 0.0162
63 | CTCCCTACATGGACCGGTTTTCCCGGTAATCCGTATTTGAA (site CTCCCTACTAT) | 0.112
64 | CTCCCTACATGGACCGGTTTTCCCGGTAATCCGTATTTGAA (site CTCCCTACTCT) | 0.0285
65 | CTCCCTACATGGACCGGTTTTCCCGGTAATCCGTATTTGAA (site CTCCCTACTGT) | 0
66 | CTCCCTACATGGACCGGTTTTCCCGGTAATCCGTATTTGAA (site CTCCCTACTTT) | 0.46
67 | CTCCCTACATGGACCGGTTTTCCCGGTAATCCGTATTTGAC (site CTCCCTACTAT) | 0.576
68 | CTCCCTACATGGACCGGTTTTCCCGGTAATCCGTATTTGAC (site CTCCCTACTCT) | 0.293
69 | CTCCCTACATGGACCGGTTTTCCCGGTAATCCGTATTTGAC (site CTCCCTACTGT) | 1.88
70 | CTCCCTACATGGACCGGTTTTCCCGGTAATCCGTATTTGAC (site CTCCCTACTTT) | 0.415
71 | CTCCCTACATGGACCGGTTTTCCCGGTAATCCGTATTTGAG (site ATCCCTACTCT) | 0.0141
72 | CTCCCTACATGGACCGGTTTTCCCGGTAATCCGTATTTGAG (site CACCCTACTCT) | 0.112
73 | CTCCCTACATGGACCGGTTTTCCCGGTAATCCGTATTTGAG (site CCCCCTACTCT) | 0.0077
74 | CTCCCTACATGGACCGGTTTTCCCGGTAATCCGTATTTGAG (site CGCCCTACTCT) | 0.0122
75 | CTCCCTACATGGACCGGTTTTCCCGGTAATCCGTATTTGAG (site CTACCTACTCT) | 0.0126
